Measurements: PubChem BioAssay AID1963873 (Molecular Pharmacology Branch, DTP, NCI, 2024)
Several values for one entry are separate records, joined by “and”; a condition that tells them apart may be missing. Equal values may be shown once.

Test system: 276233-004-R-J1-PDC KRAS spheroids with HUVEC/MSC, viability
Assay: Anticancer human tumor 276233-004-R-J1-PDC patient-derived colon adenocarcinoma cell line growth inhibition [KRAS2]
Conditions: for viability, T/C: stronger effect = lower value
Procedure, shortened: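 Combination screen of spheroid viability in tumor-cell co-cultures with endothelial (HUVEC) and mesenchymal stem cell stroma. Each agent was tested in half-log dilutions, topping at clinical Cmax or at 10 microM without a known Cmax.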

[1] = curve of first compound, second compound 0.1 µM
[2] = curve of first compound, second compound 0.316 µM
[3] = curve of first compound, second compound 1 µM
[4] = curve of first compound, second compound 3.16 µM
[5] = curve of first compound, second compound 10 µM
[6] = second compound 0.1 µM, first compound 0.01 µM
[7] = second compound 0.1 µM, first compound 0.0316 µM
[8] = second compound 0.1 µM, first compound 0.1 µM
[9] = second compound 0.316 µM, first compound 0.01 µM
[10] = second compound 0.316 µM, first compound 0.0316 µM
[11] = second compound 0.316 µM, first compound 0.1 µM
[12] = second compound 1 µM, first compound 0.01 µM
[13] = second compound 1 µM, first compound 0.0316 µM
[14] = second compound 1 µM, first compound 0.1 µM
[15] = second compound 3.16 µM, first compound 0.01 µM
[16] = second compound 3.16 µM, first compound 0.0316 µM
[17] = second compound 3.16 µM, first compound 0.1 µM
[18] = second compound 10 µM, first compound 0.0316 µM
[19] = second compound 10 µM, first compound 0.1 µM
[20] = second compound 0.1 µM, first compound 0.316 µM
[21] = second compound 0.1 µM, first compound 1 µM
[22] = second compound 0.1 µM, first compound 3.16 µM
[23] = second compound 0.316 µM, first compound 0.316 µM
[24] = second compound 0.316 µM, first compound 1 µM
[25] = second compound 0.316 µM, first compound 3.16 µM
[26] = second compound 1 µM, first compound 0.316 µM
[27] = second compound 1 µM, first compound 1 µM
[28] = second compound 1 µM, first compound 3.16 µM
[29] = second compound 3.16 µM, first compound 0.316 µM
[30] = second compound 3.16 µM, first compound 1 µM
[31] = second compound 3.16 µM, first compound 3.16 µM
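Note: cells exposed to agents for seven days before viability read.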
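Throughout, for viability, T/C: 100% = DMSO vehicle control wells and lower values mean fewer viable cells.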

For CC(C)n1nc(-c2ccc3oc(N)nc3c2)c2c(N)ncnc21 + CNCc1ccccc1-c1csc(C(C)Nc2nc(C)nc3cc(OC)c(OC)cc23)c1, which IC50 [1] is on record?
The IC50 was 0.0428 µM.

What about the IC50 [2] of the same compound?
Its IC50 is 0.0901 µM.

And the IC50 [3]?
Its IC50 is 0.00683 µM.

What about the IC50 [4] of the same compound?
Its IC50 is less than 0.000316 µM.

And the IC50 [5]?
Its IC50 is less than 0.000316 µM.

What about the viability, T/C (second compound 0.1 µM, first compound 0.000316 µM) of the same compound?
The viability, T/C was 88.7%.

What about the viability, T/C (second compound 0.1 µM, first compound 0.001 µM) of the same compound?
The viability, T/C was 76.2%.

And the viability, T/C (second compound 0.1 µM, first compound 0.00316 µM)?
The viability, T/C was 66.1%.

And the viability, T/C [6]?
Its viability, T/C is 59.5%.

What about the viability, T/C [7] of the same compound?
Its viability, T/C is 53.2%.

What about the viability, T/C [8] of the same compound?
Its viability, T/C is 44.4%.

And the viability, T/C (second compound 0.316 µM, first compound 0.000316 µM)?
The viability, T/C was 82.3%.

And the viability, T/C (second compound 0.316 µM, first compound 0.001 µM)?
Its viability, T/C is 70.7%.

And the viability, T/C (second compound 0.316 µM, first compound 0.00316 µM)?
Its viability, T/C is 66.2%.

What about the viability, T/C [9] of the same compound?
The viability, T/C was 55.5%.

And the viability, T/C [10]?
The viability, T/C was 45%.

What about the viability, T/C [11] of the same compound?
Its viability, T/C is 54.5%.

And the viability, T/C (second compound 1 µM, first compound 0.000316 µM)?
Its viability, T/C is 57.9%.

What about the viability, T/C (second compound 1 µM, first compound 0.001 µM) of the same compound?
Its viability, T/C is 63.7%.

And the viability, T/C (second compound 1 µM, first compound 0.00316 µM)?
Its viability, T/C is 60.5%.

What about the viability, T/C [12] of the same compound?
The viability, T/C was 39.6%.

What about the viability, T/C [13] of the same compound?
The viability, T/C was 43.2%.

And the viability, T/C [14]?
Its viability, T/C is 51.6%.

And the viability, T/C (second compound 3.16 µM, first compound 0.000316 µM)?
Its viability, T/C is 0.56%.

What about the viability, T/C (second compound 3.16 µM, first compound 0.001 µM) of the same compound?
The viability, T/C was 0.43%.

And the viability, T/C (second compound 3.16 µM, first compound 0.00316 µM)?
The viability, T/C was 0.72%.

What about the viability, T/C [15] of the same compound?
Its viability, T/C is 0.43%.

What about the viability, T/C [16] of the same compound?
Its viability, T/C is 1.9%.

And the viability, T/C [17]?
Its viability, T/C is 0.88%.

And the viability, T/C (second compound 10 µM, first compound 0.000316 µM)?
Its viability, T/C is 0.94%.

What about the viability, T/C (second compound 10 µM, first compound 0.001 µM) of the same compound?
The viability, T/C was 0.17%.

What about the viability, T/C (second compound 10 µM, first compound 0.00316 µM) of the same compound?
Its viability, T/C is 1.02%.

And the viability, T/C (second compound 10 µM, first compound 0.01 µM)?
The viability, T/C was 0.26%.

What about the viability, T/C [18] of the same compound?
Its viability, T/C is 0.21%.

What about the viability, T/C [19] of the same compound?
Its viability, T/C is 0.37%.

Which results are given for O=C(c1cc(Cc2n[nH]c(=O)c3ccccc23)ccc1F)N1CCN(C(=O)C2CC2)CC1 + C=CC(=O)N1CCN(c2nc(=O)n(-c3c(C)ccnc3C(C)C)c3nc(-c4c(O)cccc4F)c(F)cc23)C(C)C1?
IC50 [1]: > 10 µM; IC50 [2]: > 10 µM; IC50 [3]: > 10 µM; IC50 [4]: > 10 µM; IC50 [5]: > 10 µM; viability, T/C [7]: 83.6%; viability, T/C [8]: 96%; viability, T/C [20]: 78.6%; viability, T/C [21]: 110%; viability, T/C [22]: 82.6%; viability, T/C (second compound 0.1 µM, first compound 10 µM): 71.8%; viability, T/C [10]: 103%; viability, T/C [11]: 103%; viability, T/C [23]: 108%; viability, T/C [24]: 99%; viability, T/C [25]: 105%; viability, T/C (second compound 0.316 µM, first compound 10 µM): 87.9%; viability, T/C [13]: 121%; viability, T/C [14]: 105%; viability, T/C [26]: 98.7%; viability, T/C [27]: 82.9%; viability, T/C [28]: 98.9%; viability, T/C (second compound 1 µM, first compound 10 µM): 99.4%; viability, T/C [16]: 86.4%; viability, T/C [17]: 98.1%; viability, T/C [29]: 82.5%; viability, T/C [30]: 103%; viability, T/C [31]: 85.2%; viability, T/C (second compound 3.16 µM, first compound 10 µM): 89.8%; viability, T/C [18]: 84.1%; viability, T/C [19]: 83.5%; viability, T/C (second compound 10 µM, first compound 0.316 µM): 83.2%; viability, T/C (second compound 10 µM, first compound 1 µM): 73.5%; viability, T/C (second compound 10 µM, first compound 3.16 µM): 78.2%; viability, T/C (second compound 10 µM, first compound 10 µM): 77.8%

With CC1OCC2(CCN(c3cnc(Sc4ccnc(N)c4Cl)c(N)n3)CC2)C1N (centres undefined) as the compound, how does the viability, T/C (compound 0.0316 µM) read?
The viability, T/C was 83.3% and 88.2% and 102%.

And the IC50 (compound alone, run of 07/19/2021)?
The IC50 was greater than 10 µM.

And the IC50 (compound alone, run of 07/26/2021)?
Its IC50 is greater than 10 µM.

What about the IC50 (curve of compound) of the same compound?
Its IC50 is greater than 10 µM.

For CC1COCCN1c1cc(-c2ccnn2C)c2ccnc(-c3ccn[nH]3)c2n1 (centres undefined) + C=CC(=O)N1CCN(c2nc(OCC3CCCN3C)nc3c2CCN(c2cccc4cccc(C)c24)C3)CC1CC#N, which IC50 (curve of first compound, second compound 0.0316 µM) is on record?
The IC50 was greater than 3.16 µM.

And the IC50 [1]?
The IC50 was greater than 3.16 µM.

What about the IC50 [2] of the same compound?
Its IC50 is greater than 3.16 µM.

And the IC50 [3]?
The IC50 was greater than 3.16 µM.

And the IC50 [4]?
The IC50 was 0.19 µM.

What about the viability, T/C (second compound 0.0316 µM, first compound 0.01 µM) of the same compound?
Its viability, T/C is 100%.

What about the viability, T/C (second compound 0.0316 µM, first compound 0.0316 µM) of the same compound?
Its viability, T/C is 92.7%.

What about the viability, T/C (second compound 0.0316 µM, first compound 0.1 µM) of the same compound?
The viability, T/C was 82.4%.

And the viability, T/C (second compound 0.0316 µM, first compound 0.316 µM)?
Its viability, T/C is 71.3%.

And the viability, T/C (second compound 0.0316 µM, first compound 1 µM)?
The viability, T/C was 67.5%.

And the viability, T/C (second compound 0.0316 µM, first compound 3.16 µM)?
Its viability, T/C is 56%.

And the viability, T/C [6]?
Its viability, T/C is 111%.

What about the viability, T/C [7] of the same compound?
Its viability, T/C is 95.3%.

And the viability, T/C [8]?
Its viability, T/C is 94.6%.

What about the viability, T/C [20] of the same compound?
Its viability, T/C is 74.8%.

What about the viability, T/C [21] of the same compound?
The viability, T/C was 59%.

And the viability, T/C [22]?
Its viability, T/C is 54.1%.

What about the viability, T/C [9] of the same compound?
The viability, T/C was 106%.

What about the viability, T/C [10] of the same compound?
The viability, T/C was 96.6%.

What about the viability, T/C [11] of the same compound?
Its viability, T/C is 91.5%.

And the viability, T/C [23]?
The viability, T/C was 69.4%.

And the viability, T/C [24]?
Its viability, T/C is 59.3%.

What about the viability, T/C [25] of the same compound?
The viability, T/C was 55.6%.

And the viability, T/C [12]?
The viability, T/C was 90%.

What about the viability, T/C [13] of the same compound?
The viability, T/C was 90.5%.

And the viability, T/C [14]?
Its viability, T/C is 77.8%.

And the viability, T/C [26]?
The viability, T/C was 70.3%.

And the viability, T/C [27]?
Its viability, T/C is 64%.

What about the viability, T/C [28] of the same compound?
The viability, T/C was 56.9%.

And the viability, T/C [15]?
The viability, T/C was 76.2%.

And the viability, T/C [16]?
Its viability, T/C is 61%.

And the viability, T/C [17]?
The viability, T/C was 56.8%.

And the viability, T/C [29]?
Its viability, T/C is 42.9%.

What about the viability, T/C [30] of the same compound?
The viability, T/C was 45.6%.

And the viability, T/C [31]?
Its viability, T/C is 48%.
